Measurements taken from PubChem BioAssay (NCI).
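1) Cells in 96-well plates. 2) Compound, 48 h, 5 concentrations. 3) Linear interpolation between surrounding doses. 4) Unreached endpoint = highest concentration. At the TGI there is no net growth.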

How the values were obtained:
Assay in all cases: NCI-60 cell line screen, 48 h
CCRF-CEM leukemia = tested on: CCRF-CEM leukemia
DU-145 prostate = tested on: DU-145 prostate
HCT-15 colon = tested on: HCT-15 colon
MALME-3M melanoma = tested on: MALME-3M melanoma
MCF7 breast = tested on: MCF7 breast
MOLT-4 leukemia = tested on: MOLT-4 leukemia
NCI-H522 lung = tested on: NCI-H522 lung
OVCAR-4 ovarian = tested on: OVCAR-4 ovarian
PC-3 prostate = tested on: PC-3 prostate
SF-539 CNS = tested on: SF-539 CNS
SK-OV-3 ovarian = tested on: SK-OV-3 ovarian
SNB-75 CNS = tested on: SNB-75 CNS
UO-31 renal = tested on: UO-31 renal
LOX IMVI melanoma = tested on: LOX IMVI melanoma

| Structure (SMILES) | TGI (CCRF-CEM leukemia) [µM] | TGI (DU-145 prostate) [µM] | TGI (HCT-15 colon) [µM] | TGI (MALME-3M melanoma) [µM] | TGI (MCF7 breast) [µM] | TGI (MOLT-4 leukemia) [µM] | TGI (NCI-H522 lung) [µM] | TGI (OVCAR-4 ovarian) [µM] | TGI (PC-3 prostate) [µM] | TGI (SF-539 CNS) [µM] | TGI (SK-OV-3 ovarian) [µM] | TGI (SNB-75 CNS) [µM] | TGI (UO-31 renal) [µM] | TGI (LOX IMVI melanoma) [µM] |
| --- | --- | --- | --- | --- | --- | --- | --- | --- | --- | --- | --- | --- | --- | --- |
| COc1ccc(C(=O)/C=C/c2ccc(OCC#N)cc2)cc1 | 81 | 81.7 | 54.7 | 43.7 | 36.1 | 77.1 | 35.6 | > 100 | > 100 | 45.4 | > 100 | > 100 | 30.6 | – |
| O=C1Cc2c([nH]c3ccc(C(=O)O)cc23)-c2ccccc2N1 | > 100 | > 100 | > 100 | > 100 | > 100 | > 100 | – | > 100 | > 100 | > 100 | > 100 | – | > 100 | > 100 |
| Cc1cnc2c(c1C)C(=O)c1ccccc1C2=O | > 100 | > 100 | 88.1 | – | > 100 | > 100 | > 100 | 59.3 | > 100 | > 100 | > 100 | > 100 | > 100 | – |
| O=C(c1ccccc1)c1c(CC(O)c2ccncc2)n(C(=O)c2ccccc2)c2ccccc12 (stereo not drawn) | 61.9 | – | 38.7 | 34 | – | 42.1 | 29.7 | 39.7 | – | 32.1 | – | 41.4 | 31.7 | – |
| Nc1ccc(Nc2cc(=O)[nH]c(=O)[nH]2)cc1Cl | > 100 | > 100 | > 100 | > 100 | > 100 | > 100 | > 100 | > 100 | > 100 | > 100 | > 100 | – | > 100 | > 100 |
| CCCCCCCCCCCC[N+](CCCCCCCCCCCC)=C1SCCS1 | – | – | 22.9 | 19.1 | – | 16.6 | 19.5 | 11.3 | – | 25.5 | 30.1 | 30 | 26.2 | 4.52 |
| C=C(C)[C@@H]1CC[C@]2(C(=O)OC)CC[C@]3(C)[C@H](CC[C@@H]4[C@@]5(C)CC[C@H](O)C(C)(C)[C@@H]5CC[C@]43C)[C@@H]12 | 48.9 | > 100 | 50.6 | 53 | 41.6 | 44.6 | 40.6 | – | 34.8 | 34.9 | – | 59 | 49.1 | 34.6 |
| O=C(O)c1ccccc1N=Nc1c(O)c(S(=O)(=O)O)cc2cc(S(=O)(=O)O)ccc12 | > 100 | > 100 | > 100 | – | > 100 | > 100 | – | – | > 100 | > 100 | > 100 | > 100 | > 100 | > 100 |
| NNc1nnc(-c2nnc(NN)o2)o1 | > 10 | > 10 | > 10 | > 10 | > 10 | > 10 | – | > 10 | > 10 | > 10 | – | – | > 10 | – |
| N#CCCC1(CCC#N)CCCCCCCCC(CCC#N)(CCC#N)C(O)C1O (stereo not drawn) | – | > 100 | > 100 | > 100 | > 100 | – | > 100 | > 100 | > 100 | 85.8 | > 100 | > 100 | – | > 100 |
| C=C1CC[C@@H](C)[C@](C)(CCc2ccoc2)C/C=C\C=C/1C(=O)O | 90.3 | – | > 100 | > 100 | > 100 | 95.8 | – | > 100 | > 100 | 42.6 | > 100 | > 100 | > 100 | 57 |
| O=C1NC2CCCCCC2C12CCCCC2 (stereo not drawn) | > 100 | – | > 100 | > 100 | – | > 100 | – | > 100 | – | > 100 | > 100 | > 100 | > 100 | > 100 |
| O=NN(CCF)C(=O)NC1CCSCC1 | > 100 | – | > 100 | > 100 | > 100 | > 100 | > 100 | > 100 | – | > 100 | > 100 | > 100 | > 100 | > 100 |
| COc1cccc(C2c3cc4c(cc3OC3COC(=O)C32)OCO4)c1OC (stereo not drawn) | > 100 | > 100 | > 100 | > 100 | > 100 | > 100 | – | > 100 | > 100 | > 100 | > 100 | > 100 | > 100 | > 100 |
| COc1ccc(NC(=O)C(=O)/C=C(\O)c2ccccc2)cc1 | 8.76 | > 10 | > 10 | > 10 | > 10 | 4.18 | – | > 10 | > 10 | – | > 10 | > 10 | – | 5.27 |
| CO/N=C1/c2sccc2[C@H](NC(=O)C(Cc2ccccc2)NC(=O)OC(C)(C)C)[C@@H]1O (stereo partly drawn) | > 100 | > 100 | > 100 | > 100 | > 100 | > 100 | – | > 100 | > 100 | > 100 | > 100 | > 100 | > 100 | > 100 |
| CN=C(Nc1cccc(C(F)(F)F)c1)SCc1ccc(N=C=S)cc1 | > 100 | 31.2 | 20.8 | 27.8 | – | 36 | 22.4 | 26.8 | 29.4 | 31.5 | 34.5 | 28 | 28.4 | 18.4 |
| Nc1ncnc2c1ncn2[C@@H]1O[C@H](COC(c2ccccc2)(c2ccccc2)c2ccccc2)[C@@H](OC(=S)Oc2ccccc2)[C@@H]1F | 8.55 | 30.2 | 12.5 | – | 14.9 | 5.98 | 5.32 | 57.9 | 15.2 | 20.9 | 30.8 | 32.6 | 13.2 | 14.1 |
| CSc1c(C#N)c(N)n(-c2ccc(Cl)cc2)c(=O)c1C#N | – | > 100 | > 100 | > 100 | > 100 | > 100 | > 100 | > 100 | > 100 | > 100 | > 100 | > 100 | > 100 | > 100 |
